Results reported in patent US4442300A, “Therapeutically active compounds” (Aktiebolaget Draco, priority 1980, dated 1984).
Where “and” joins values, the source holds several entries; their conditions need not be identical. Equal entries are not always repeated. Entries after “also recorded” stand apart in the source; their conditions may differ. Where two headings read alike, the source gives them in different places.

Key:
[1] = Duration of serum levels of terbutaline after oral administration to unanaesthetized dogs (test A); format: in vivo, dog (Beagle); conditions: p.o., >= 2 ng/ml serum
Method: A. Duration of serum levels of terbutaline after administration of compounds of the invention to unanaesthetized dogs
(§1) Five dogs (Beagle, .male., 13-18 kg) have been used repeatedly in the study. Each dog was used at most once a week. Food was withheld from the animals the night before the experiment (water ad libitum). The test compound was solved or suspended in 8 ml of distilled water, and delivered into the back of the mouth by use of a syringe and a short tube. This oral supply was followed by a water rinse of 8 ml.
The blood was collected from the cephalic veins in the forelegs by use of evacuated tubes. The esterase inhibitor diisopropylfluophosphate (DFP) was added, the samples centrifugated (+5°) and the most amount of terbutaline in plasma determined by a massfragmentographic analysis method.
(§2) The amounts of the test substances to be administered were selected so that the level of terbutaline, when administered per se, corresponds to the serum levels obtained and found effective in patients at clinical use, that is a level of terbutaline of at least 2 ng/ml serum for 6 to 8 hours. The doses of the test substances of the invention were selected so that the serum levels of terbutaline obtained would correspond approximately with the serum levels obtained after administration of terbutaline per se.

[2] = test system: histamine evoked rise of the insufflation pressure; assay: Duration of bronchospasmolytic activity after local administration via aerosol, histamine-induced bronchoconstriction (test B); format: in vivo, Guinea-pigs, strain Dunkin-Hartley
Method: Guinea-pigs, strain Dunkin-Hartley, of either sex, weighing 500-900 g were anaesthetized by i.p. injection and i.v. infusion of pentobarbital. The animals were artifically ventilated with a Braun constant volume respiration pump giving 70 strokes/min and a stroke volume of 0.75 ml/100 g body weight. Intratracheal pressure (insufflation pressure) was measured by use of a T-junction on the tracheal cannula connected to a Statham pressure transducer P23BC. An increase in intratracheal pressure, indicating bronchoconstriction, was elicited by i.v. injection (v. jugularis) of histamine. The constricting agent was injected every 10 minutes by a timer-controlled perfusor in a dose giving about 80% of the maximum contractile response (1-2.10^-8 mol/kg). The bronchospasmolytic drugs to be tested were solved in aq. dest. containing 3% glycerol and nebulized by use of a Bird Inline Nebulizer (air pressure 0.2 MPa; droplet spectrum around 1 micron). The generated aerosol was lead through the respirator and tracheal cannula. Inhalation of drug was going on during periods of 30 min. The resulting bronchodilator effect was calculated from the percentage reduction of the histamine evoked rise of the insufflation pressure.
The concentration of the test substance in the solved composition that when nebulized produced 50% inhibition of the increased tracheal pressure (ED50) was measured. […]

isolated tracheal muscle = assay: Bronchodilating effect in vitro on isolated guinea-pig trachea (test C1); conditions: for Potentiating or inhibiting effect on the bronchodilating effect of terbutaline: 5 min pretreatment with test compound; for EC50: Cavia porcellus; for blockade of the bronchodilating effect by propranolol: propranolol 3.10^-6 mol/l (concentration given for I and II)
Method: The trachea from guinea-pigs was dissected out, cut spirally and transferred to a 10 ml organ bath containing Krebs solution of 37° and aerated with carbogen. The tracheal strip was contracted by pilocarpine (4.10^-6 mol/l) producing a tension of about 1.5 g. Isometric recording was made by use of a transducer FTO3 and a Grass polygraph 7D. Before the administration of the test compound the esterase inhibitor eserin was added to the bath in a concentration of 1.10^-6 mol/l. The concentration of the test substances which produces 50% relaxation (EC50) of the pilocarpine contracted trachea was recorded as well as potentiating or inhibiting influence of the test substances of the invention on the relaxing effect of terbutaline. In this last mentioned test the muscle preparation was pretreated with the test compounds during 5 minutes, before the response of terbutaline was recorded.

[3] = test system: histamine-induced bronchospasm; assay: Protecting effect against histamine-induced bronchospasm after oral administration (test C2); format: in vivo, guinea-pigs, Dunkin-Hartley strain; conditions: for ED50: Cavia porcellus, 0.05 h, histamine aerosol, read-out: Dose protecting 50% of the test animals for more than 3 minutes (ED50)
Method: Male guinea-pigs, Dunkin-Hartley strain, 150-200 g, were used in the study. The animals were starved for about 15 hours (water ad libitum) before the administration, by a stomach tube, of test compound or vehicle (controls). To establish an adequate time period between administration and histamine exposure, the maximum plasma level of terbutaline produced from the hydrolysis of the given pro-drugs of terbutaline was determined. Thus, blood samples (in pre-experimental series) were collected from guinea-pigs at different times after the administration of the test compound and the plasma level of terbutaline was determined by a massfragmentographic assay. A peak in the plasma terbutaline was noted 50-60 minutes after the administration, and this time was selected as time for start of histamine exposure.
The histamine aerosol was generated by Bird inline nebulizers from a solution containing 0.02% histamine-HCl and 3% glycerole. The protecting effect was estimated from the delay in appeareance of signs of anoxia in drug-treated animals. […] Drug-treated guinea-pigs without any signs of respiratory influence from the histamine during these first 3 minutes were denoted as protected.

[4] = test system: isolated auricles from guinea-pig heart; assay: In vitro test on isolated guinea-pig auricles (test D1); parameters: species or system strain Dunkin Hartley; conditions: for Emax: Cavia porcellus; for any chronotropic or inotropic effect: isolated auricles, in words; for potentiating or inhibiting effect on the chronotropic and inotropic effect of terbutaline: same concentration as terbutaline
Method: Male guinea-pigs strain Dunkin Hartley (400-500 g) were used. After bleeding and removal of the heart the auricles were dissected free from the ventricular part and submerged into carbogen aerated Krebs solution of 37°. The frequency and force of the spontaneously beating preparation was recorded by a Grass transducer FTO3. In the polygraph (Grass 7D) the signals from the isometric transducer passed a trigger function from the drive amplifier to the tachograph to record the rate.
The esterase inhibitor eserine was added to a concentration of 1.10^-6 mol/l in the organ bath before the drugs to be tested were added. The intrinsic activity of the test compounds on the heart preparation, that is their effect on heart rate (chronotropic effect) and their effect on the force of the heart beats (inotropic effect), and their possible interaction with terbutaline was studied.

heart rate = assay: In vivo effect of the test compounds on the heart rate in dogs (test D2); parameters: species or system dog (Beagle); conditions: oral; for Slope of line, increase in heart rate vs. logarithm of corresponding serum conc.: terbutaline 0.01-0.1 mg/kg, compound I 0.3-2.7 mg/kg
Method: as §1
The blood was collected from the cephalic veins in the forelegs by use of evacuated tubes. The esterase inhibitor diisopropylfluophosphate (DFP) was added, the samples centrifugated (+5°) and the amount of terbutaline in plasma determined by a massfragmentographic analysis method. The serum level of terbutaline indicates the degree of bronchospasmolytic effect of the test compounds, provided terbutaline is solely responsible for the bronchospasmolytic effect. This method does, however, not measure the intrinsic activity of the test compounds.
as §2
The heart rate was determined by a stethoscope (the mean of three determinations during a 5-minute periode) before the administration of drug and before each blood sampling.
The relative effect of the test compounds on the heart rate of the test animals was illustrated by plotting in a diagram the increase in heart rate measured at a certain serum concentration of terbutaline versus the logarithm of the said terbutaline concentration in serum. Only values before and up to the maximal increase in heart rate were used. This method will produce a graph consisting of a substantially straight line. […]

[5] = cited from earlier work; for duration of bronchospasmolytic activity, in words: compared with terbutaline or salbutamol
[6] = isolated trachea, Table 3, read-out: concentration producing a bronchodilating effect
[7] = pilocarpine contracted trachea (4.10^-6 mol/l), eserin 1.10^-6 mol/l, read-out: Concentration of test substance producing 50% relaxation of trachea (EC50)
[8] = read-out: chromotropic effect on isolated auricle (relative values)
[9] = read-out: inotropic effect on isolated auricle (relative values)

Row | Compound | Potentiating or inhibiting effect on the bronchodilating effect of terbutaline (isolated tracheal muscle) | EC50 (isolated tracheal muscle; [6]) | EC50 (isolated tracheal muscle; [7]) | concentration range for bronchodilating effect relative to terbutaline (isolated tracheal muscle; isolated trachea) | blockade of the bronchodilating effect by propranolol (isolated tracheal muscle) | protection against histamine-induced bronchospasm on molar basis relative to terbutaline [3] | ED50 [3] | Emax [4, 8] | Emax [4, 9] | any chronotropic or inotropic effect [4] | potentiating or inhibiting effect on the chronotropic and inotropic effect of terbutaline [4] | Slope of line, increase in heart rate vs. logarithm of corresponding serum conc. (heart rate) | duration of bronchospasmolytic activity, in words [5] | other results
1 | CC(C)(C)NCC(O)c1cc(OC(=O)c2ccc(OC(=O)C(C)(C)C)cc2)cc(OC(=O)c2ccc(OC(=O)C(C)(C)C)cc2)c1 (stereo not drawn) [Compound I] | none and No potentiating or inhibiting activity | ~1.8 µM | 1.8 ± 0.6 µM | about 9 times higher | not blocked | about equally effective as terbutaline | 1.1 mg/kg and 1.6 µmol/kg | 0% | 0% | none | No potentiating or inhibiting effect | 0.53 |  | time with clinically useful serum level of terbutaline relative to terbutaline [1]: at least twice as long; time with a serum level of terbutaline of 2 ng/ml or more ([1]; listed as compound I): 16 h; onset of effect [2]: comparable to that produced by terbutaline; duration of bronchospasmolytic effect compared with terbutaline ([2]; at ED50 dose level): about three times longer; increase in heart rate relative to terbutaline (heart rate; dogs): relatively much lower; also recorded: considerably reduced
2 | CC(C)C(=O)Oc1ccc(C(=O)Oc2cc(OC(=O)c3ccc(OC(=O)C(C)C)cc3)cc(C(O)CNC(C)(C)C)c2)cc1 (stereo not drawn) [II] | none and No potentiating or inhibiting activity | ~1.8 µM | 1.8 ± 0.6 µM | about 9 times higher | not blocked | about equally effective as terbutaline | 1.1 mg/kg and 1.6 µmol/kg | 0% | 0% | none | No potentiating or inhibiting effect |  |  | 
3 | Cc1ccc(C(=O)Oc2ccc(C(O)CNC(C)(C)C)cc2OC(=O)c2ccc(C)cc2)cc1 (stereo not drawn) [bitolterol] |  |  |  |  |  |  |  |  |  |  |  |  | comparable with that of salbutamol | 
4 | CC(C)(C)NCC(O)c1ccc(O)c(CO)c1 (stereo not drawn) [salbutamol] |  |  |  |  |  |  |  |  |  |  |  |  | about equal to the duration of terbutaline | 
5 | CC(C)(C)NCC(O)c1cc(O)cc(O)c1 (stereo not drawn) [terbutaline, reference compound] |  |  |  |  | blocked |  |  | 100% | 100% |  |  | 1.04 |  | serum concentration necessary for desired therapeutic activity ([5]; Hornblad et al.): at least 2 ng/ml
6 | CC(C)(C)NCC(O)c1cc(OC(=O)c2ccc(OC(=O)C(C)(C)C)cc2)cc(OC(=O)c2ccc(OC(=O)C(C)(C)C)cc2)c1 (stereo not drawn) [test substance of the invention] |  |  |  |  |  |  |  |  |  |  |  |  |  | time with a serum level of terbutaline of 2 ng/ml or more [1]: about 16 hours
